Publication PMC7311950, “Potent Tetrahydroquinolone Eliminates Apicomplexan Parasites” (Frontiers in Cellular and Infection Microbiology, 2020)
Values after ≈ are worked out from the molar mass of the structure shown.

How the values were obtained:
[1] = Metabolic stability in mouse liver microsomes; conditions: mouse, liver microsomes, T1/2 (M), predicted half-life in mouse liver microsomes; Figure 1A; min in Figure 2E for the same values
Protocol: (§1) The effects of changing R1 as 7-Et, 7-Me, 6-CF3, or 6-Me on activity against RH strain tachyzoites, kinetic solubility, and metabolic stability were compared. Kinetic solubility and metabolic stability in human or murine liver microsomes were measured. The hERG (human Ether-à-go-go-Related) liability was also determined. The hERG gene (KCNH2) encodes a protein Kv11.1, the alpha subunit of a potassium ion channel. This channel conducts the rapid component of the delayed rectifier potassium current, IKr, which is critical for repolarization of cardiac action potentials. A reduction in hERG currents from adverse drug effects can lead to long QT interval syndromes. These syndromes are characterized by action potential prolongation, lengthening of the QT interval on surface EKG, and an increased risk for “torsade de pointes” arrhythmias and sudden death. The MDCK-MDR1 Permeability Assay was also performed. MDCK-MDR1 refers to the ability of a compound to permeate across membranes of MDCK-MDR1 (Madin Darby canine kidney [MDCK] cells with the MDR1 gene [ABCB1], the gene encoding for the efflux protein, P-glycoprotein (P-gp)) in vitro. Assessing transport in both directions (apical to basolateral and basolateral to apical) across the cell monolayers enables an efflux ratio to be determined. […] This provides a prediction of blood brain barrier (BBB) penetration potential/permeability and efflux ratio. Effect in CACO-2 (Colon Adenocarcinoma cells) as a permeability assay and on cytochrome P450 (CYP 450) were also determined. CYP enzymes catalyze oxidative biotransformation (phase 1 metabolism) of most drugs. CYP enzymes, bind to membranes in a cell (cyto) and contain a heme pigment (chrome and P) that absorbs light at a wavelength of 450 nm when exposed to carbon monoxide. Metabolism of a drug by CYP enzymes is a major source of variability in drug effect. These were measured by Chem Partners. The relative effect on HFF and parasite enzymes also were compared.
(§2) In vitro absorption, distribution, metabolism, excretion, and toxicity (ADMET) analyses of the THQ compounds were outsourced to ChemPartner Shanghai Ltd. ELQ-271 (synthesized in-house) was tested as a comparison.

[2] = test system: T. gondii RH-YFP tachyzoites; test: In vitro challenge assay, RH strain YFP tachyzoites in HFF; assay type: cell-based; conditions: Toxoplasma gondii; RH-YFP tachyzoites in HFF; Figure 1A; read-out: Tachy IC50
Protocol: RH strain YFP Tachyzoites. Protocol was adapted from Fomovska et al. ([2012a],[b]) for HFF. HFF were cultured on a flat, clear-bottomed, black 96-well plate to 90–100% confluence. IMDM (1x, [+] glutamine, [+] 25 mM HEPES, [+] Phenol red, 10% FBS [Gibco, Denmark]) was removed and replaced with IMDM-C(1x, [+] glutamine, [+] 25 mM HEPES, [–] Phenol red, 10% FBS)[Gibco, Denmark]). RH-YFP, lysed from host cells by passing twice through a 27-gauge needle, were counted, then diluted to 32,000/mL in IMDM-C. HFF were infected with 3200 RH-YFP, then returned to 37°C, CO2 (5%) incubator for 1–2 h for infection. Various concentrations of the compounds in 20 μL IMDM-C were added to each well. There were triplicates for each condition. Controls were pyrimethamine/sulfadiazine (standard treatment), 0.1% DMSO only, HFF only, and untreated cultures of HFF infected with 2-fold dilutions of YFP expressing parasites (called “YFP gradient” to establish amount of color from known numbers of YFP expressing parasites). Cells were incubated at 37°C for 72 h. Plates were read using a fluorimeter (Synergy H4 Hybrid Reader, BioTek) to ascertain amount of relative fluorescence units (RFU) YFP, to measure parasite burden after treatment. Data were collected using Gen5 software with IC50 calculated by graphical analysis in Excel.
An initial screening assay of 10 μM, 1 μM, 100 nM, and 10 nM of the compounds was performed. Compounds were not considered effective or pursued for further analysis if there was no inhibition of tachyzoites at 1 μM. If compounds were effective at 1 μM, another experiment was performed to assess effect at 1 μM, 500, 250, 125, 62.5, and 31.25 nM.

[3] = Kinetic solubility in PBS pH 7.4 (Chem Partners); conditions: PBS; for solubility kinetic: pH 7.4, aqueous buffer, kinetic from dmso stock
Protocol: as §1

[4] = test system: T. gondii EGS strain bradyzoites; test: In vitro challenge assay for EGS strain bradyzoites; assay type: cell-based, Toxoplasma gondii; conditions: Toxoplasma gondii; EGS strain in HFF; Figure 1A; read-out: Brady IC50
Protocol: HFF cells were grown in IMDM on removable, sterile glass cover slips in the bottom of a clear, flat-bottomed 24-well plate. Cultures were infected with 3 × 10^4 EGS strain parasites per well, in 0.5 mL media. The plate was returned to incubator at 37°C overnight. The following day, the media was removed. Colorless IMDM and compounds were added to make various concentrations of the drug. Total volume was 0.5 mL. Two wells had media only, as a control. Plates were returned to the 37°C incubator for 72 h, checked once each 24 h. If tachyzoites were visible in the control before 72 h, cells were fixed and stained. Cells were fixed using 4% paraformaldehyde and stained with Fluorescein-labeled Dolichos Biflorus Agglutinin, DAPI, and antibody to BAG1. Disks were removed, mounted on glass slides, and visualized using microscopy (Nikon Tl7). Slides were scanned using a CRi Panoramic Scan Whole Slide Scanner and viewed using Panoramic Viewer Software. Effects of compounds were quantitated by counting cysts in controls and treated cultures. Dolichos staining delimited structures and single organisms that remained were counted in a representative field of view. This was then multiplied by a factor determined by the total area of the cover slip in order to estimate the number of cysts and organisms in each condition. When the following forms were observed: “true cysts” with a dolichos-staining wall, “pseudocysts” or tight clusters of parasites, and small organisms, if there were fewer than four parasites visible in a cluster, organisms were counted individually (as “small organisms”). The entire scanned coverslip with all fields was also reviewed by 3 observers to confirm consistency.

[5] = Metabolic stability in human liver microsomes; conditions: human, liver microsomes
Protocol: as §1, §2

Row | SMILES | half-life [1] | IC50 [2] | solubility kinetic [3] | IC50 [4] | solubility ([3]; pH 7.4, aqueous solubility (PBS, pH 7.4), amorphous compounds) | half-life [5]
1 | Cc1[nH]c2c(c(=O)c1-c1ccc(Oc3cccc(OC(F)(F)F)c3)cc1)CCCC2 [AS006] | 25.9 min | 60 nM | 0.55 µM (≈ 0.228 µg/mL) | 1000 nM | – | –
2 | Cc1[nH]c2c(c(=O)c1-c1ccc(Oc3cccc(C(F)(F)F)c3)cc1)CCCC2 [AS012] | 30.1 min | 260 nM | 2.19 µM (≈ 0.875 µg/mL) | – | – | –
3 | Cc1[nH]c2c(c(=O)c1-c1ccc(Oc3ccc(F)c(Cl)c3)cc1)CCCC2 [AS021] | 41.1 min | 65 nM | 2 µM (≈ 0.768 µg/mL) | 1000 nM | – | –
4 | Cc1[nH]c2c(c(=O)c1-c1ccc(Oc3cc(Cl)cc(Cl)c3)cc1)CCCC2 [AS022] | 28.6 min | 30 nM | 6.25 µM (≈ 2.5 µg/mL) | 1000 nM | – | –
5 | Cc1[nH]c2c(c(=O)c1-c1ccc(Oc3ccc4c(c3)OCO4)cc1)CCCC2 [AS032] | – | 200 nM | – | – | – | –
6 | Cc1[nH]c2c(c(=O)c1-c1ccc(Oc3cc(Cl)nc(Cl)c3)cc1)CCCC2 [AS034] | 24.9 min | 280 nM | 5.05 µM (≈ 2.03 µg/mL) | – | – | –
7 | Cc1[nH]c2ccccc2c(=O)c1-c1ccc(Oc2ccc(OC(F)(F)F)cc2)cc1 [ELQ271, reference compound] | 448 min | 30 nM | – | 5000 nM | 0.2 µM (≈ 0.0823 µg/mL) | –
8 | Cc1c(-c2ccc(Oc3ccc(OC(F)(F)F)cc3)cc2)c(=O)c2c(n1C)CCCC2 [JAG023] | – | 800 nM | – | – | – | –
9 | Cc1[nH]c2c(c(=O)c1-c1ccc(Oc3ccc(F)cc3)cc1)CCCC2 [JAG058] | 39.2 min | 40 nM | 2.38 µM (≈ 0.832 µg/mL) | 1000 nM | – | 263 min
10 | Cc1[nH]c2c(c(=O)c1-c1ccc(Oc3cccc(Cl)c3)cc1)CCCC2 [JAG062] | 12.4 min | 16 nM | 0.33 µM (≈ 0.121 µg/mL) | 1000 nM | – | 135 min
11 | Cc1[nH]c2c(c(=O)c1-c1ccc(Oc3ccc(C(F)(F)F)cc3)cc1)CCCC2 [JAG063] | 127 min | 200 nM | 0.45 µM (≈ 0.18 µg/mL) | – | – | 537 min
12 | Cc1[nH]c2c(c(=O)c1-c1ccc(Oc3cccc(F)c3)cc1)CCCC2 [JAG069] | 17.4 min | 30 nM | 0.5 µM (≈ 0.175 µg/mL) | 1000 nM | – | 202 min
13 | Cc1[nH]c2c(c(=O)c1-c1ccc(Oc3ccc(Cl)c(Cl)c3)cc1)CCCC2 [JAG084] | 63.1 min | 55 nM | 0.68 µM (≈ 0.272 µg/mL) | 1000 nM | – | –
14 | O=C(O)c1[nH]c2c(c(=O)c1-c1ccc(Oc3ccc(OC(F)(F)F)cc3)cc1)CCCC2 [JAG091] | – | > 10000 nM | – | – | – | –
15 | Cc1[nH]c2c(c(=O)c1-c1ccc(O)cc1)CCCC2 [JAG094] | – | 1000 nM | – | – | – | –
16 | Cc1[nH]c2c(c(=O)c1-c1ccc(Oc3ccc(OC(F)(F)F)cc3)cc1)CC(C(F)(F)F)CC2 (centres unmarked) [JAG100] | – | > 10000 nM | – | – | – | –
17 | Cc1[nH]c2c(c(=O)c1-c1ccc(Oc3ccc(OC(F)(F)F)cc3)cc1)CC(C)CC2 (centres unmarked) [JAG106] | – | 2500 nM | – | – | – | –
18 | Cc1[nH]c2c(c(=O)c1-c1ccc(Oc3ccc(OC(F)(F)F)cc3)cc1)CCC(C)C2 (centres unmarked) [JAG107] | 112 min | 50 nM | 0.03 µM (≈ 0.0129 µg/mL) | – | – | –
19 | CCC1CCc2c([nH]c(C)c(-c3ccc(Oc4ccc(OC(F)(F)F)cc4)cc3)c2=O)C1 (centres unmarked) [JAG121] | 63.3 min | 55 nM | 0.16 µM (≈ 0.071 µg/mL) | – | – | –
20 | Cc1[nH]c2cnccc2c(=O)c1-c1ccc(Oc2ccc(OC(F)(F)F)cc2)cc1 [JAG129] | – | 85 nM | 5.12 µM (≈ 2.11 µg/mL) | – | – | –
21 | Cc1[nH]c2c(c(=O)c1-c1ccc(Oc3ccc(OC(F)(F)F)cc3)cc1)CCC(C(F)(F)F)C2 (centres unmarked) [JAG162] | 144 min | 300 nM | 0.02 µM (≈ 0.00967 µg/mL) | – | – | –
22 | CCOC(=O)Oc1c2c(nc(C)c1-c1ccc(Oc3ccc(OC(F)(F)F)cc3)cc1)CCCC2 [JAG171] | – | 100 nM | – | – | – | –
23 | CCC1CCc2c([nH]c(CO)c(-c3ccc(Oc4ccc(OC(F)(F)F)cc4)cc3)c2=O)C1 (centres unmarked) [JAG174] | – | 380 nM | – | – | – | –
24 | O=c1c2c([nH]c(CO)c1-c1ccc(Oc3ccc(OC(F)(F)F)cc3)cc1)CC(C(F)(F)F)CC2 (centres unmarked) [JAG187] | – | 2000 nM | – | – | – | –
25 | CC1CCc2c([nH]c(CO)c(-c3ccc(Oc4ccc(OC(F)(F)F)cc4)cc3)c2=O)C1 (centres unmarked) [JAG193] | – | 50 nM | – | – | – | –
26 | Cc1[nH]c2c(c(=O)c1-c1ccc(Oc3cc(Cl)cc(Cl)c3)cc1)CCC(C)C2 (centres unmarked) [JAG208] | – | 20 nM | – | 1000 nM | – | –
27 | Cc1[nH]c2ccccc2c(=O)c1-c1ccc(Oc2ccccc2)cc1 [MJM129] | – | 50 nM | – | > 10000 nM | – | –
28 | Cc1[nH]c2ccnn2c(=O)c1-c1ccc(Oc2ccc(OC(F)(F)F)cc2)cc1 [MJM141] | – | 8200 nM | 0.94 µM (≈ 0.377 µg/mL) | 10000 nM | – | 278 min
